Source: ChEMBL document CHEMBL5346894, “Developments of PROTACs technology in immune-related diseases” (Eur J Med Chem, 2023)
Blank lines part the entries; values can stand above or below the molecule they belong to.

Key:
HeLa = assay: Anticancer activity against human HeLa cells assessed as cell growth inhibition measured after 24 hrs by MTT assay; type: functional, cell-based
HL-60 = assay: Anticancer activity against human HL-60 cells assessed as cell growth inhibition; type: functional, cell-based
MOLT-4 = assay: Anticancer activity against human MOLT-4 cells assessed as cell growth inhibition; type: functional, cell-based
Jurkat = assay: Anticancer activity against human Jurkat cells assessed as cell growth inhibition; type: functional, cell-based
[1] = molecular target: Protein cereblon/Indoleamine 2,3-dioxygenase 1 (Homo sapiens) (UniProt P14902+Q96SW2); assay: Protac activity at CRBN/IDO1 in human HeLa cell assessed as degradation of IDO1 measured after 24 hrs by Western blot assay relative to control; type: cell-based
Protein cereblon/Indoleamine 2,3-dioxygenase 1 (Homo sapiens), sequence (P14902 whole entry, looked up): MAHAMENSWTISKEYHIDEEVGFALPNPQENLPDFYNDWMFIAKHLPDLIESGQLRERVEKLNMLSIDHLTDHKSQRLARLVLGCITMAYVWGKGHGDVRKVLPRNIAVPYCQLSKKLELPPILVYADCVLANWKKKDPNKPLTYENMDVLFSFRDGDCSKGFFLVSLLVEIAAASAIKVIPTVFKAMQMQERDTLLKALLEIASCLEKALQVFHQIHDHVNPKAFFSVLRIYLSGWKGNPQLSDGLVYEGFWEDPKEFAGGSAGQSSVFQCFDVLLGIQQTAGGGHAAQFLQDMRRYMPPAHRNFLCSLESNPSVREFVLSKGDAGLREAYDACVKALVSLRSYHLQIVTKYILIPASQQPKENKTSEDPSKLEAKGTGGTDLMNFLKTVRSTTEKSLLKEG
Protein cereblon/Indoleamine 2,3-dioxygenase 1 (Homo sapiens), sequence (Q96SW2 whole entry, looked up): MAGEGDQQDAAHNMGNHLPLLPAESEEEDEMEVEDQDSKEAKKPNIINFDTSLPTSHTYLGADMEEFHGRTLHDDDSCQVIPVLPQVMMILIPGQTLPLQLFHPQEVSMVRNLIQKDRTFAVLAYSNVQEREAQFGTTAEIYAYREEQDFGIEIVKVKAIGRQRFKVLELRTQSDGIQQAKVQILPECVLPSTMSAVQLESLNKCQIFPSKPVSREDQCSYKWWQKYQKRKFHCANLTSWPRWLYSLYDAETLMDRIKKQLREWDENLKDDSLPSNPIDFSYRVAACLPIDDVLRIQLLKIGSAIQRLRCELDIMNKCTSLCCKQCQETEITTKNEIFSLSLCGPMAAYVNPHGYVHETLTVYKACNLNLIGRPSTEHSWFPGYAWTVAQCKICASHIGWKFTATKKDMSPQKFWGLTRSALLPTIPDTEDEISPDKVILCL

[2] = molecular target: T1, von Hippel-Lindau disease tumor suppressor/Histone deacetylase 3 (Homo sapiens, UniProt O15379+P40337); assay: Protac activity at VHL/HDAC3 in human MDA-MB-468 cells assessed as HDAC3 degradation at 125 nM measured after 8 hrs by Western blot analysis relative to control; type: cell-based
[3] = molecular target: T1, von Hippel-Lindau disease tumor suppressor/Histone deacetylase 3; assay: Protac activity at VHL/HDAC3 in human MDA-MB-468 cells assessed as HDAC3 degradation measured after 14 hrs by Western blot analysis; type: cell-based
[4] = molecular target: E3 ubiquitin-protein ligase XIAP/Receptor-interacting serine/threonine-protein kinase 2 (Homo sapiens, UniProt P98170+O43353); assay: Protac activity at IAP/RIPK2 in human THP-1 cells assessed as degradation of RIPK2 measured after 18 hrs by capillary immunoassay; type: cell-based
E3 ubiquitin-protein ligase XIAP/Receptor-interacting serine/threonine-protein kinase 2, sequence (P98170 whole entry): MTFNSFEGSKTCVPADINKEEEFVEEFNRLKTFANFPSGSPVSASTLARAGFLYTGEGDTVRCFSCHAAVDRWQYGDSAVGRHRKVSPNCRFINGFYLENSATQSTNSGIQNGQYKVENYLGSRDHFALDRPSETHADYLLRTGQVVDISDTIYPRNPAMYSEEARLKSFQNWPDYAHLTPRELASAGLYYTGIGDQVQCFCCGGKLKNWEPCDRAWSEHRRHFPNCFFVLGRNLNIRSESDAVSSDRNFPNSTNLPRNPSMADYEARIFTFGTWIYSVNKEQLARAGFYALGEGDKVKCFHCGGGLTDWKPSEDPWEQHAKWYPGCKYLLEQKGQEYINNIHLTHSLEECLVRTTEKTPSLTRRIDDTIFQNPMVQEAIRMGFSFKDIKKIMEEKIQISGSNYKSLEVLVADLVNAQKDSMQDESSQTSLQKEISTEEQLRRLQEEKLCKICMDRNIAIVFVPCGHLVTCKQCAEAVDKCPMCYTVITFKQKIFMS
E3 ubiquitin-protein ligase XIAP/Receptor-interacting serine/threonine-protein kinase 2, sequence (O43353 whole entry): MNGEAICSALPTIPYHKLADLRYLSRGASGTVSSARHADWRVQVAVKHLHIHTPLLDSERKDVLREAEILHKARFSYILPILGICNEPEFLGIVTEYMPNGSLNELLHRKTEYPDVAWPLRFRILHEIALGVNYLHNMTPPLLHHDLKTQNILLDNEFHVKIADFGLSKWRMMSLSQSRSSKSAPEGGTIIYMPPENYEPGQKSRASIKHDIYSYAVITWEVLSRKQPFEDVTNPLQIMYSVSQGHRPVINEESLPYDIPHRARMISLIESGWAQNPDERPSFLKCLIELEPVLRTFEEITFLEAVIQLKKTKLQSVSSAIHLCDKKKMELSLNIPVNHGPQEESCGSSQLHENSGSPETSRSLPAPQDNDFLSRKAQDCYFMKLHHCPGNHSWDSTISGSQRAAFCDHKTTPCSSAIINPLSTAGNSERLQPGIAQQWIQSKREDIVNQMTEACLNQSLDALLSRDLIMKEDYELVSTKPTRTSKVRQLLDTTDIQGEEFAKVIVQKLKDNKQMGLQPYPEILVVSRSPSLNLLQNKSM

[5] = molecular target: Protein cereblon/Receptor-interacting serine/threonine-protein kinase 2 (Homo sapiens, UniProt O43353+Q96SW2); assay: Protac activity at CRBN/RIPK2 in human THP-1 cells assessed as degradation of RIPK2 measured after 18 hrs by capillary immunoassay; type: cell-based
Protein cereblon/Receptor-interacting serine/threonine-protein kinase 2, sequence (O43353 whole entry): as above
Protein cereblon/Receptor-interacting serine/threonine-protein kinase 2, sequence (Q96SW2 whole entry): as the sequence (Q96SW2 whole entry, looked up) above

[6] = molecular target: von Hippel-Lindau disease tumor suppressor/Histone deacetylase 3/Lysine-specific histone demethylase 1A/REST corepressor 1 (Homo sapiens, UniProt O15379+O60341+P40337+Q9UKL0); assay: Protac activity at VHL/LSD1/HDAC3/CoREST complex interaction in human ES1 cells assessed as induction of HDAC3 degradation by fluorescence based assay; type: cell-based
[7] = molecular target: von Hippel-Lindau disease tumor suppressor/Histone deacetylase 2/Lysine-specific histone demethylase 1A/REST corepressor 1 (Homo sapiens, UniProt O60341+P40337+Q92769+Q9UKL0); assay: Protac activity at VHL/LSD1/HDAC2/CoREST complex interaction in human ES1 cells assessed as induction of HDAC2 degradation by fluorescence based assay; type: cell-based
[8] = molecular target: von Hippel-Lindau disease tumor suppressor/Histone deacetylase 1/Lysine-specific histone demethylase 1A/REST corepressor 1 (Homo sapiens, UniProt O60341+P40337+Q13547+Q9UKL0); assay: Protac activity at VHL/LSD1/HDAC1/CoREST complex interaction in human ES1 cells assessed as HDAC1 degradation by fluorescence based assay; type: cell-based
[9] = molecular target: von Hippel-Lindau disease tumor suppressor/Interleukin-1 receptor-associated kinase 4 (Homo sapiens, UniProt Q9NWZ3+P40337); assay: Protac activity at VHL/IRAK4 in human HEK293T cells assessed as IRAK4 degradation measured after 24 hrs by immunoblotting analysis; type: cell-based
Protein cereblon = Protein cereblon (Homo sapiens, UniProt Q96SW2); assay: Binding affinity to CRBN (unknown origin) assessed as dissociation constant by Tr-FRET assay
[10] = molecular target: T2, von Hippel-Lindau disease tumor suppressor/Receptor-interacting serine/threonine-protein kinase 2 (Homo sapiens, UniProt O43353+P40337); assay: Protac activity at VHL/RIPK2 in human THP-1 cells assessed as RIPK2 degradation at 10 nM measured after 16 hrs by Western blot analysis relative to control; type: cell-based
Target sequence in this assay (O43353 whole entry, looked up): as the sequence (O43353 whole entry) above
Target sequence in this assay (P40337 whole entry, looked up): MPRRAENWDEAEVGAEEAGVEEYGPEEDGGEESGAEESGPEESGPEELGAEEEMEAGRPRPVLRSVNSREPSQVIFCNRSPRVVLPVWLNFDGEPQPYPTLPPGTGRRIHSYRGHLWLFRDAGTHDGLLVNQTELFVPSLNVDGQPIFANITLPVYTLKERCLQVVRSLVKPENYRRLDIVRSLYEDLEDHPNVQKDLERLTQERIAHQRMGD

[11] = molecular target: Receptor-interacting serine/threonine-protein kinase 2 (Homo sapiens, UniProt O43353); assay: Inhibition of RIPK2 (unknown origin) by fluorescence polarization assay
Receptor-interacting serine/threonine-protein kinase 2, sequence (O43353 whole entry): as the sequence (O43353 whole entry) above

[12] = molecular target: T2, von Hippel-Lindau disease tumor suppressor/Receptor-interacting serine/threonine-protein kinase 2; assay: Protac activity at VHL/RIPK2 in human THP-1 cells assessed as RIPK2 degradation measured after 16 hrs by Western blot analysis; type: cell-based
Target sequence in this assay (O43353 whole entry): as above
Target sequence in this assay (P40337 whole entry): as the sequence (P40337 whole entry, looked up) above

[13] = molecular target: Protein cereblon/Histone acetyltransferase KAT2B (Homo sapiens) (UniProt Q92831+Q96SW2); assay: Protac activity at CRBN/PCAF in human THP-1 cells assessed as PCAF degradation at 1.5 nM measured after 10 mins by Western blot analysis relative to control; type: cell-based
[14] = molecular target: Protein cereblon/Histone acetyltransferase KAT2A (Homo sapiens) (UniProt Q92830+Q96SW2); assay: Protac activity at CRBN/GCN5 in human THP-1 cells assessed as GCN5 degradation at 3 nM measured after 10 mins by Western blot analysis relative to control; type: cell-based
[15] = molecular target: Protein cereblon/Poly [ADP-ribose] polymerase 1 (Homo sapiens) (UniProt P09874+Q96SW2); assay: Protac activity at CRBN/PARP1 in human SW620 cells assessed as degradation of PARP1 at <100 nM measured after 24 hrs by Western blot analysis relative to control; type: cell-based

Compound: CCCNNC(=O)c1ccc(-c2ccc(NC(=O)CCCCCCC(=O)N[C@H](C(=O)N3C[C@H](O)C[C@H]3C(=O)N[C@@H](C)c3ccc(-c4scnc4C)cc3)C(C)(C)C)cc2)cc1
- Activity [2]: 70%
- DC50 [3]: 42 nM

Compound: CC(C)(C)S(=O)(=O)c1cc2c(Nc3ccc4scnc4c3)ccnc2cc1OCCOCCOCCOCCOCC(=O)Nc1cccc2c1CN(C1CCC(=O)NC1=O)C2=O (stereo not given)
- DC50 [5]: 2.5 nM

Compound: C=C([C@@H](NC(=O)COCCOCCOCCOCCOc1cc2nccc(Nc3ccc4scnc4c3)c2cc1S(=O)(=O)C(C)(C)C)C(C)(C)C)N1C[C@H](O)C[C@H]1C(=O)NCc1ccc(-c2scnc2C)cc1
- Emax [10]: > 95%
- IC50 [11]: 10 nM
- DC50 [12]: 1.4 nM

Compound: CN1C[C@H](Nc2cnn(C)c(=O)c2Br)C[C@H](c2ccc(C(=O)N(C)CCCN(C)c3ccc(CCCOc4cccc5c4C(=O)N(C4CCC(=O)NC4=O)C5=O)cc3)cc2)C1 (stereo not given in full)
- Activity [13]: 50%
- Activity [14]: 50%

Now from value to molecule:

- IC50 (HeLa): 4.3 nM
Compound: CC1(NCc2cn(CCOCCOCCOCCOCCNc3cccc4c3C(=O)N(C3CCC(=O)NC3=O)C4=O)nn2)CCN(c2cnc(-c3cccc(Cl)c3Cl)c(N)n2)CC1 (stereo not given)

- IC50 (HL-60): 8.56 nM
- IC50 (MOLT-4): 2.96 nM
- IC50 (Jurkat): 4.46 nM
Compound: O=C(/C=C/c1cccnc1)NCCCCC1CCN(C(=O)c2ccc(N3CCN(CCCCCC#Cc4cccc5c4CN(C4CCC(=O)NC4=O)C5=O)CC3)cc2)CC1 (stereo not given)

- Emax [1]: 93%
Compound: O=C1CCC(N2C(=O)c3cccc(NCCOCCOCCOCCOCCOCCOCCOCCNCCNc4nonc4/C(=N/O)Nc4ccc(F)c(Br)c4)c3C2=O)C(=O)N1 (stereo not given)

- DC50 [4]: 2 nM
Compound: CN[C@@H](C)C(=O)N[C@H](C(=O)N1Cc2cc(OCCOCCOCCOCCOc3cc4nccc(Nc5ccc6scnc6c5)c4cc3S(=O)(=O)C(C)(C)C)ccc2C[C@H]1C(=O)N[C@@H]1CCCc2ccccc21)C(C)(C)C

- IC50 [6]: 500 nM
- IC50 [7]: 500 nM
- IC50 [8]: 500 nM
Compound: Cc1ncsc1-c1ccc(CNC(=O)[C@@H]2C[C@@H](O)CN2C(=O)[C@@H](NC(=O)CCCCCCCCCCC(=O)Nc2ccc(C(=O)Nc3ccccc3N)cc2)C(C)(C)C)cc1

- DC50 [9]: 405 nM
- Kd (Protein cereblon): 490 nM
Compound: CC(C)Nc1cc(-n2ccc3cc(C#N)cnc32)ncc1C(=O)N[C@H]1CC[C@H](C(=O)NCCOCCNC(=O)COc2cccc3c2C(=O)N(C2CCC(=O)NC2=O)C3=O)CC1 (stereo not given in full)

- Activity [15]: 80%
Compound: O=C1CCC(N2Cc3c(NCCCCCCCCCCCNC(=O)c4cc(Cc5n[nH]c(=O)c6ccccc56)ccc4F)cccc3C2=O)C(=O)N1 (stereo not given)
